In patent publication US20240058450A1, “BCL-XL Inhibitory Compounds Having Low Cell Permeability and Antibody Drug Conjugates Including the Same” (AbbVie Inc., priority 2014, published 2024):
Like-named read-outs stand apart in the source and are kept apart here.

Experiments:
Bcl-xL = Bcl-xL (Homo sapiens, UniProt Q07817); experiment: Time Resolved-Fluorescence Resonance Energy Transfer (TR-FRET) binding assay, competition with probe F-Bak
Method: Tb-anti-GST antibody was purchased from Invitrogen (Catalog No. PV4216).
For the assay, test compounds were serially diluted in DMSO starting at 50 μM (2× starting concentration; 10% DMSO) and 10 μL transferred into a 384-well plate. 10 μL of a protein/probe/antibody mix was then added to each well at final concentrations listed below:
The samples were then mixed on a shaker for 1 minute and incubated for an additional 2 hours at room temperature. For each assay plate, a probe/antibody and protein/antibody/probe mixture were included as a negative and a positive control, respectively. Fluorescence was measured on the Envision (Perkin Elmer) using a 340/35 nm excitation filter and 520/525 (F-Bak) and 495/510 nm (Tb-labeled anti-his antibody) emission filters. Dissociation constants (Ki) were determined using Wang's equation (Wang, 1995, FEBS Lett. 360:111-114). The TR-FRET assay can be performed in the presence of varying concentrations of human serum (HS) or fetal bovine serum (FBS). Compounds were tested both without HS and in the presence of 1% HS.

[1] = test system: Molt-4 human acute lymphoblastic leukemia cells; experiment: Molt-4 cell viability assay (CellTiter-Glo, 48 hours, 10% HS); type: cell-based; details: Homo sapiens, MOLT-4, 48 h, non-permeabilized cells
Method: The ability of Bcl-xL inhibitors that are able to traverse cell membranes to inhibit Bcl-xL can be determined in cell-based killing assays using a variety of cell lines and mouse tumor models. For example, their activity on cell viability can be assessed on a panel of cultured tumorigenic and non-tumorigenic cell lines, as well as primary mouse or human cell populations.
In one exemplary set of conditions, Molt-4 (ATCC, Manassas, VA) human acute lymphoblastic leukemia cells were plated 12,500 cells per well in 384-well tissue culture plates (Corning, Corning, NY) in a total volume of 25 μL tissue culture medium supplemented with 10% human serum (Sigma-Aldrich, St. Louis, MO) and treated with a 3-fold serial dilution of the compounds of interest from 10 μM to 0.0005 μM. Each concentration was tested in duplicate at least 3 separate times. The number of viable cells following 48 hours of compound treatment was determined using the CellTiter-Glo®, Luminescent Cell Viability Assay according to the manufacturer's recommendations (Promega Corp., Madison, WI). Compounds were tested in the presence of 10% HS.

[2] = in the presence of 1% HS, read-out: Bcl-xL Binding Ki (nM, 1% HS)
[3] = without HS, read-out: Bcl-xL Binding Ki

Sequence of Bcl-xL (Q07817 whole entry): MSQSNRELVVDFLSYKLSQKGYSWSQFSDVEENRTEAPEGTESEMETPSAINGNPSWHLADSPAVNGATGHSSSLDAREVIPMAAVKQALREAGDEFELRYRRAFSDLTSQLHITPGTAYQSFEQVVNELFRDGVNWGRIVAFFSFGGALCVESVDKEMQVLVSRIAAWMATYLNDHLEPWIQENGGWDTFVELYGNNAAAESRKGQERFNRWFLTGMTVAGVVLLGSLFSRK

Ki (Bcl-xL; [2]) [nM] | Ki (Bcl-xL; [3]) [nM] | EC50 [1] [nM] | SMILES
0.0635 | < 0.001 | 405 | Cc1c(-c2ccc(N3CCc4cccc(C(=O)Nc5nc6ccccc6s5)c4C3)nc2C(=O)O)cnn1CC12CC3(C)CC(C)(C1)CC(OCCN(CCC(=O)O)C1CCNCC1)(C3)C2 [Example 1.36, 6-[8-(1,3-benzothiazol-2-ylcarbamoyl)-3,4-dihydroisoquinolin-2 (1H)-yl]-3-{1-[(3-{2-[(2-carboxyethyl)(piperidin-4-yl)amino]ethoxy}-5,7-dimethyltricyclo[3.3.1.1^3,7]dec-1-yl)methyl]-5-methyl-1H-pyrazol-4-yl}pyridine-2-carboxylic acid]
0.294 | < 0.001 | 805 | Cc1c(-c2ccc(N3CCc4cccc(C(=O)Nc5nc6ccccc6s5)c4C3)nc2C(=O)O)cnn1CC12CC3(C)CC(C)(C1)CC(OCCN(CCS(=O)(=O)O)C(=O)[C@@H](N)CS(=O)(=O)O)(C3)C2 [Example 1.37, 6-[8-(1,3-benzothiazol-2-ylcarbamoyl)-3,4-dihydroisoquinolin-2 (1H)-yl]-3-{1-[(3,5-dimethyl-7-{2-[(3-sulfo-L-alanyl)(2-sulfoethyl)amino]ethoxy}tricyclo[3.3.1.1^3,7]dec-1-yl)methyl]-5-methyl-1H-pyrazol-4-yl}pyridine-2-carboxylic acid]
6.28 | < 0.001 | 6480 | Cc1c(-c2ccc(N3CCc4cccc(C(=O)Nc5nc6cccnc6s5)c4C3)nc2C(=O)O)cnn1CC12CC3(C)CC(C)(C1)CC(OCCNCCCP(=O)(O)O)(C3)C2 [Example 1.40, 3-{1-[(3,5-dimethyl-7-{2-[(3-phosphonopropyl)amino]ethoxy}tricyclo[3.3.1.1^3,7]dec-1-yl)methyl]-5-methyl-1H-pyrazol-4-yl}-6-[8-([1,3]thiazolo[5,4-b]pyridin-2-ylcarbamoyl)-3,4-dihydroisoquinolin-2 (1H)-yl]pyridine-2-carboxylic acid]
0.133 | < 0.001 | 482 | Cc1c(-c2ccc(N3CCc4cccc(C(=O)Nc5nc6ccccc6s5)c4C3)nc2C(=O)O)cnn1CC12CC3(C)CC(C)(C1)CC(OCCN(CCCC(=O)O)C1CCNCC1)(C3)C2 [Example 1.42, 6-[8-(1,3-benzothiazol-2-ylcarbamoyl)-3,4-dihydroisoquinolin-2 (1H)-yl]-3-{1-[(3-{2-[(3-carboxypropyl)(piperidin-4-yl)amino]ethoxy}-5,7-dimethyltricyclo[3.3.1.1^3,7]dec-1-yl)methyl]-5-methyl-1H-pyrazol-4-yl}pyridine-2-carboxylic acid]
0.86 | < 0.001 | 185 | Cc1c(-c2ccc(-c3ccc4cccc(C(=O)Nc5nc6ccccc6s5)c4c3)nc2C(=O)O)cnn1CC12CC3(C)CC(C)(C1)CC(OCCNCCS(=O)(=O)O)(C3)C2 [Example 1.43, 6-[8-(1,3-benzothiazol-2-ylcarbamoyl)naphthalen-2-yl]-3-{1-[(3,5-dimethyl-7-{2-[(2-sulfoethyl)amino]ethoxy}tricyclo[3.3.1.1^3,7]dec-1-yl)methyl]-5-methyl-1H-pyrazol-4-yl}pyridine-2-carboxylic acid]
0.497 | < 0.001 | 692 | Cc1c(-c2ccc(N3CCc4cccc(C(=O)Nc5nc6ccccc6s5)c4C3)nc2C(=O)O)cnn1CC12CC3(C)CC(C)(C1)CC(OCCN(CCNCCS(=O)(=O)O)CCS(=O)(=O)O)(C3)C2 [Example 1.48, 6-[8-(1,3-benzothiazol-2-ylcarbamoyl)-3,4-dihydroisoquinolin-2 (1H)-yl]-3-{1-[(3,5-dimethyl-7-{2-[(2-sulfoethyl){2-[(2-sulfoethyl)amino]ethyl}amino]ethoxy}tricyclo[3.3.1.1^3,7]dec-1-yl)methyl]-5-methyl-1H-pyrazol-4-yl}pyridine-2-carboxylic acid]
0.051 | 0.0073 | 2770 | Cc1c(-c2ccc(N3CCc4cccc(C(=O)Nc5nc6ncccc6s5)c4C3)nc2C(=O)O)cnn1CC12CC3(C)CC(C)(C1)CC(OCCN(CCCP(=O)(O)O)C1CCNCC1)(C3)C2 [Example 1.50, 3-{1-[(3,5-dimethyl-7-{2-[(3-phosphonopropyl)(piperidin-4-yl)amino]ethoxy)tricyclo[3.3.1.1^3,7]dec-1-yl)methyl]-5-methyl-1H-pyrazol-4-yl}-6-[8-([1,3]thiazolo[4,5-b]pyridin-2-ylcarbamoyl)-3,4-dihydroisoquinolin-2 (1H)-yl]pyridine-2-carboxylic acid]
0.17 | < 0.001 | 555 | Cc1c(-c2ccc(-c3ccc4c(c3)N(C(=O)Nc3nc5ccccc5s3)CCO4)nc2C(=O)O)cnn1CC12CC3(C)CC(C)(C1)CC(OCCNCCS(=O)(=O)O)(C3)C2 [Example 1.51, 6-[4-(1,3-benzothiazol-2-ylcarbamoyl)-3,4-dihydro-2H-1,4-benzoxazin-6-yl]-3-{1-[(3,5-dimethyl-7-{2-[(2-sulfoethyl)amino]ethoxy}tricyclo[3.3.1.1^3,7]dec-1-yl)methyl]-5-methyl-1H-pyrazol-4-yl}pyridine-2-carboxylic acid]
0.0329 | < 0.001 | 973 | CNCCOC12CC3(C)CC(C)(CC(Cn4ncc(-c5ccc(N6CCc7c(OCCCS(=O)(=O)O)ccc(C(=O)Nc8nc9ccccc9s8)c7C6)nc5C(=O)O)c4C)(C3)C1)C2 [Example 1.52, 6-[8-(1,3-benzothiazol-2-ylcarbamoyl)-5-(3-sulfopropoxy)-3,4-dihydroisoquinolin-2 (1H)-yl]-3-[1-({3,5-dimethyl-7-[2-(methylamino)ethoxy]tricyclo[3.3.1.1^3,7]dec-1-yl}methyl)-5-methyl-1H-pyrazol-4-yl]pyridine-2-carboxylic acid]
0.088 | < 0.001 | 462 | Cc1c(-c2ccc(-c3ccc4c(c3)N(C(=O)Nc3nc5ncccc5s3)CCC4)nc2C(=O)O)cnn1CC12CC3(C)CC(C)(C1)CC(OCCNCCS(=O)(=O)O)(C3)C2 [Example 1.53, 3-{1-[(3,5-dimethyl-7-{2-[(2-sulfoethyl)amino]ethoxy}tricyclo[3.3.1.1^3,7]dec-1-yl)methyl]-5-methyl-1H-pyrazol-4-yl}-6-[1-([1,3]thiazolo[4,5-b]pyridin-2-ylcarbamoyl)-1,2,3,4-tetrahydroquinolin-7-yl]pyridine-2-carboxylic acid]
0.11 | < 0.001 | > 10000 | Cc1c(-c2ccc(-c3ccc4cccc(C(=O)Nc5nc6ncccc6s5)c4c3)nc2C(=O)O)cnn1CC12CC3(C)CC(C)(C1)CC(OCCNCCS(=O)(=O)O)(C3)C2 [Example 1.54, 3-{1-[(3,5-dimethyl-7-[2-[(2-sulfoethyl)amino]ethoxy}tricyclo[3.3.1.1^3,7]dec-1-yl)methyl]-5-methyl-1H-pyrazol-4-yl}-6-[8-([1,3]thiazolo[4,5-b]pyridin-2-ylcarbamoyl)naphthalen-2-yl]pyridine-2-carboxylic acid]
0.039 | 0.039 | 73 | Cc1c(-c2ccc(N3CCc4c(CC5O[C@H](CO)[C@@H](O)[C@H](O)[C@H]5O)ccc(C(=O)Nc5nc6ccccc6s5)c4C3)nc2C(=O)O)cnn1CC12CC3(C)CC(C)(C1)CC(OCCN)(C3)C2 (stereo partly drawn) [Example 1.55, (1ξ)-1-({2-[5-(1-{[3-(2-aminoethoxy)-5,7-dimethyltricyclo[3.3.1.1^3,7]dec-1-yl]methyl}-5-methyl-1H-pyrazol-4-yl)-6-carboxypyridin-2-yl]-8-(1,3-benzothiazol-2-ylcarbamoyl)-1,2,3,4-tetrahydroisoquinolin-5-yl}methyl)-1,5-anhydro-D-glucitol]
